From patent US20250326772A1, “MRGPRX2 ANTAGONISTS, PHARMACEUTICAL COMPOSITION INCLUDING MRGPRX2 ANTAGONIST, AND METHOD OF TREATING MRGPRX2-MEDIATED DISEASE OR DISORDER” (KYORIN PHARMACEUTICAL CO., LTD., priority 2024, published 2025)

Biological target: T1, MRGPRX2 (Homo sapiens, UniProt Q96LB1)
T1 sequence (Q96LB1 1-330): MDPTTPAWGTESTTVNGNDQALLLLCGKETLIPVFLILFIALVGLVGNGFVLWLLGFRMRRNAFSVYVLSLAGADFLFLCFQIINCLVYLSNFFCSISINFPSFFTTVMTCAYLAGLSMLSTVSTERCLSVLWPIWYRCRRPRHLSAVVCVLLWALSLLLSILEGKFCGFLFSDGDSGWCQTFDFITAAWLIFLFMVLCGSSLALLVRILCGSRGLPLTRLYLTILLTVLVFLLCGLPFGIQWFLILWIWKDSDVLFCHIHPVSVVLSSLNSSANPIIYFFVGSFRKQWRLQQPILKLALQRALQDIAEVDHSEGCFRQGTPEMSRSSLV
Assay: MRGPRX2 reporter cell assay (NFAT-RE luciferase, Substance P stimulation)
Type: cell-based
Details: U2OS cells stably transfected with MRGPRX2 and NFAT-RE luciferase reporter; Substance P at EC80
In short: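 U2OS cells stably expressing MRGPRX2 and an NFAT-RE luc2P reporter, pre-incubated 30 min at 37° C with compound (0.5% DMSO), then stimulated with Substance P at EC80 for 6 h. Luminescence after ONE-GLO; percent inhibition fitted by four-parameter logistic to IC50.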

| Compound | IC50 [nM] |
| --- | --- |
| Cn1cc(-c2c(-c3c(C(F)F)nn4c3OC[C@@H](OCC(C)(C)O)C4)[nH]c3ncccc23)c(OC(F)F)n1 [EX. 535] | 2 |

Same assay, conditions: U2OS cells stably transfected with MRGPRX2 and NFAT-RE luciferase reporter; Substance P at EC80; class symbols

| Compound | IC50 [nM] |
| --- | --- |
| Cc1ccc(F)c(-c2c(-c3cn(C)nc3C(F)(F)F)[nH]c3ncccc23)c1 [EX. 299] | < 10 |
| FC(F)c1nn2c(c1-c1[nH]c3ncccc3c1C1=CCCCC1)OCCC2 [EX. 430] | < 10 |
| Cn1cc(-c2[nH]c3ncccc3c2-c2ccccc2C#N)c(CF)n1 [EX. 270] | < 10 |
| [2H]C([2H])([2H])n1cc(-c2[nH]c3ncccc3c2-c2cc(OC)ccc2C#N)c(C(F)F)n1 [EX. 377] | < 10 |
| N#Cc1ccccc1-c1c(-c2ccccc2OCc2ccccc2)[nH]c2ncccc12 [EX. 109] | < 10 |
| Cn1cc(-c2c(-c3c(CF)nn4c3OCCC4)[nH]c3ncccc23)c(OC(F)F)n1 [EX. 423] | < 10 |
| COc1ccc(F)cc1-c1[nH]c2ncccc2c1-c1cc(C)ccc1F [EX. 21, 2-(5-fluoro-2-methoxy-phenyl)-3-(2-fluoro-5-methyl-phenyl)-1H-pyrrolo[2,3-b]pyridine] | < 10 |
| COc1ccc(C#N)c(-c2c(-c3c(OC)nn4cccnc34)[nH]c3ncccc23)c1 [EX. 225] | < 10 |
| COc1ccc(C#N)c(-c2c(-c3c(C)nn4c3OCC4)[nH]c3ncccc23)c1 [EX. 230] | < 10 |
| N#Cc1ccccc1-c1c(-c2c[nH]nc2OC(F)F)[nH]c2ncccc12 [EX. 157] | < 10 |
| N#Cc1ccccc1-c1c(-c2c(C(F)F)nn3c2OCC(O)C3)[nH]c2ncccc12 (centres unmarked) [EX. 203] | < 10 |
| COc1ccc(C#N)c(-c2c(-c3c(C(F)F)nn4c3OCC(N)C4)[nH]c3ncccc23)c1 (centres unmarked) [EX. 357] | < 10 |
| Cn1cc(-c2c(-c3c(C(F)F)nn4c3OCC(O)C4)[nH]c3ncccc23)c(OC(F)F)n1 (centres unmarked) [EX. 426, 3-(3-(3-(difluoromethoxy)-1-methyl-1H-pyrazol-4-yl)-1H-pyrrolo[2,3-b]pyridin-2-yl)-2-(difluoromethyl)-6,7-dihydro-5H-pyrazolo[5,1-b] [1,3]oxazin-6-ol] | < 10 |
| COc1ccccc1-c1[nH]c2ncccc2c1-c1cc(C)ccc1F [EX. 314] | < 10 |
| N[C@@H]1COc2c(-c3[nH]c4ncccc4c3-c3csnc3OC(F)F)c(C(F)F)nn2C1 [EX. 425] | < 10 |
| COc1ccc(C#N)c(-c2c(-c3c(C)nn4c3OCC(NC(C)=O)C4)[nH]c3ncccc23)c1 (centres unmarked) [EX. 356] | < 10 |
| N#Cc1cnccc1-c1c(-c2c(C(F)F)nn3c2OCCC3)[nH]c2ncccc12 [EX. 408] | < 10 |
| Cc1ccc(C#N)c(-c2c(-c3cnn4cccnc34)[nH]c3ncccc23)c1 [EX. 100] | < 10 |
| [2H]c1c([2H])c([2H])c(-c2[nH]c3nccc(F)c3c2-c2ccccc2C#N)c(O)c1[2H] [EX. 45] | < 10 |
| COc1ccc(C#N)c(-c2c(-c3c(C)nn4c(C)ccnc34)[nH]c3ncccc23)c1 [EX. 254] | < 10 |
| COc1ccc(C#N)c(-c2c(-c3c(C(F)F)nn4c3OCC(NC(=O)OC(C)(C)C)C4)[nH]c3ncccc23)c1 (centres unmarked) [EX. 257] | < 10 |

Further lines, results first:

| IC50 [nM] | Compound |
| --- | --- |
| < 10 | Cn1cc(-c2c(-c3c(C(F)F)nn4c3OC[C@@H](O)C4)[nH]c3ncccc23)c(C#N)n1 [EX. 491, (S)-4-(2-(2-(difluoromethyl)-6-hydroxy-6,7-dihydro-5H-pyrazolo[5,1-b] [1,3]oxazin-3-yl)-1H-pyrrolo[2,3-b]pyridin-3-yl)-1-methyl-1H-pyrazole-3-carbonitrile] |
| < 10 | CCO[C@@H]1COc2c(-c3[nH]c4ncccc4c3-c3cn(C)nc3OC(F)F)c(C(F)F)nn2C1 [EX. 532] |
| < 10 | Cn1cc(-c2c(-c3c(C(F)F)nn4c3OC[C@@H](NC(=O)C3(F)CC3)C4)[nH]c3ncccc23)c(OC(F)F)n1 [EX. 588] |
| < 10 | Cn1cc(-c2c(-c3c(C(F)F)nn4c3OC[C@@](C)(OCC(N)=O)C4)[nH]c3ncccc23)c(OC(F)F)n1 [EX. 482] |
| < 10 | Cn1cc(-c2c(-c3c(C(F)F)nn4c3OC[C@@H](NC(=O)OC3CCOC3)C4)[nH]c3ncccc23)c(OC(F)F)n1 (some centres unmarked) [EX. 566] |
| < 10 | Fc1ccc(-c2c(-c3c(C(F)F)nn4c3OC[C@@H](F)C4)[nH]c3ncccc23)c(OC(F)F)c1 [EX. 447] |
| < 10 | C[C@H](O)CN(C)C(=O)N[C@@H]1COc2c(-c3[nH]c4ncccc4c3-c3cn(C)nc3OC(F)F)c(C(F)F)nn2C1 [EX. 595, 3-((S)-3-(3-(3-(difluoromethoxy)-1-methyl-1H-pyrazol-4-yl)-1H-pyrrolo[2,3-b]pyridin-2-yl)-2-(difluoromethyl)-6,7-dihydro-5H-pyrazolo[5,1-b] [1,3]oxazin-6-yl)-1-((S)-2-hydroxypropyl)-1-methylurea] |
| < 10 | CS(=O)(=O)N[C@@H]1COc2c(-c3[nH]c4ncccc4c3-c3cccnc3C#N)c(C(F)F)nn2C1 [EX. 522] |
| < 10 | CCNC(=O)O[C@@H]1COc2c(-c3[nH]c4ncccc4c3-c3cn(C)nc3OC(F)F)c(C(F)F)nn2C1 [EX. 539] |
| < 10 | Cn1cc(C(=O)N[C@@H]2COc3c(-c4[nH]c5ncccc5c4-c4cn(C)nc4OC(F)F)c(C(F)F)nn3C2)cn1 [EX. 562] |
| < 10 | CN[C@@H]1COc2c(-c3[nH]c4ncccc4c3-c3cn(C)nc3OC(F)F)c(C(F)F)nn2C1 [EX. 582, (S)-3-(3-(3-(difluoromethoxy)-1-methyl-1H-pyrazol-4-yl)-1H-pyrrolo[2,3-b]pyridin-2-yl)-2-(difluoromethyl)-N-methyl-6,7-dihydro-5H-pyrazolo[5,1-b] [1,3]oxazin-6-amine] |
| < 10 | N#Cc1ncccc1-c1c(-c2c(C(F)F)nn3c2OC[C@@H](NC(=O)C2CC2)C3)[nH]c2ncccc12 [EX. 591] |
| < 10 | Cn1cc(-c2c(-c3c(C(F)F)nn4c3OC[C@@H](OCC(N)=O)C4)[nH]c3ncccc23)c(OC(F)F)n1 [EX. 583, (S)-2-((3-(3-(3-(difluoromethoxy)-1-methyl-1H-pyrazol-4-yl)-1H-pyrrolo[2,3-b]pyridin-2-yl)-2-(difluoromethyl)-6,7-dihydro-5H-pyrazolo[5,1-b] [1,3]oxazin-6-yl)oxy) acetamide] |
| < 10 | O[C@@H]1COc2c(-c3[nH]c4ncccc4c3-c3cccnc3OC(F)F)c(C(F)F)nn2C1 [EX. 454] |
| < 10 | O[C@@H]1COc2c(-c3[nH]c4ncccc4c3-c3cc(F)ccc3OC(F)F)c(C(F)F)nn2C1 [EX. 468] |
| < 10 | CCc1nn2c(c1-c1[nH]c3ncccc3c1-c1cn(C)nc1OC(F)F)OC[C@@H](NS(C)(=O)=O)C2 [EX. 545] |
| < 10 | COC(=O)N[C@@H]1COc2c(-c3[nH]c4ncccc4c3-c3cccnc3OC(F)F)c(C(F)F)nn2C1 [EX. 512, methyl(S)-(3-(3-(2-(difluoromethoxy)pyridin-3-yl)-1H-10 pyrrolo[2,3-b]pyridin-2-yl)-2-(difluoromethyl)-6,7-dihydro-5H-pyrazolo[5,1-b] [1,3]oxazin-6-yl) carbamate] |
| < 10 | CS(=O)(=O)N[C@@H]1COc2c(-c3[nH]c4ncccc4c3-c3cccnc3OC(F)F)c(C3CC3)nn2C1 [EX. 456] |
| < 10 | COc1ncc(F)cc1-c1c(-c2c(C(F)F)nn3c2OC[C@@H](O)C3)[nH]c2ncccc12 [EX. 476] |
| < 10 | Cn1cc(-c2c(-c3c(C(F)F)nn4c3OC[C@@H](OCC(C)(C)O)C4)[nH]c3ncccc23)c(OC(F)F)n1 [EX. 535] |
| < 10 | O[C@@H]1COc2c(-c3[nH]c4ncccc4c3-c3ccccc3OC(F)F)c(C(F)F)nn2C1 [EX. 469] |
| < 10 | N#Cc1ncccc1-c1c(-c2c(C(F)F)nn3c2OC[C@@H](O)C3)[nH]c2ncccc12 [EX. 477] |
